Where two headings read alike, the source gives them in different places.
Target: T1, GLP-1R (Homo sapiens, UniProt P43220)
T1 construct: host or cells: GLP-1R CRE-bla CHO-K1 cells
Assay: EC20 GLP-1(9-36) PAM cAMP assay: dose response of compound in the presence of fixed concentration of GLP-1(9-36)
Assay type: cell-based
Settings: GLP-1R CRE-bla CHO-K1 cells, read-out: EC20 GLP-1(9-36) PAM EC50
Summary of the method: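 Positive allosteric modulation read as cAMP accumulation: compound titrations (12 points) combined with an EC20 level of GLP-1(9-36) on CHO-K1 GLP-1R CRE-bla cells, IBMX present, 30 min, 37 °C, pH 7.4 buffer. Luminescence converted to cAMP via standards; non-linear fit gave EC50 and Emax.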

[1] = dose response of compound in presence of fixed concentration of GLP-1(9-36)
[2] = compound dose response with fixed concentration of GLP-1(9-36)

T1 sequence (P43220 24-463): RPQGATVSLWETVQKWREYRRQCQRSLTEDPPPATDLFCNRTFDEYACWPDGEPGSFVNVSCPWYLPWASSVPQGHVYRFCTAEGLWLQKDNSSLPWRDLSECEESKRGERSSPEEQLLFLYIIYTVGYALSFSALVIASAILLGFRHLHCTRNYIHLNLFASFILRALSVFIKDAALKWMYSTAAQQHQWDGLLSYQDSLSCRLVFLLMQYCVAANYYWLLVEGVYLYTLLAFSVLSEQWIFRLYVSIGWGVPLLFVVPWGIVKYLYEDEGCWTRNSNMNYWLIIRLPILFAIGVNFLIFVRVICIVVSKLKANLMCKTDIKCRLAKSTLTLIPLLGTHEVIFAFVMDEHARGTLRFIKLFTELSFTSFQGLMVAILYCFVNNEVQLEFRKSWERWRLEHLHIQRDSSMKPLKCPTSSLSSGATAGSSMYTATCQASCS
T1 sequence (P01275 100-127 partner limits assumed): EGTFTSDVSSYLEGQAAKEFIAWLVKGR

Compound `C[C@@H](NC(=O)[C@H](Cc1ccc(-c2ncc(-c3ccc(C(F)(F)F)cc3)cn2)cc1)NC(=O)c1ccc(C(C)(C)C)cc1)C(=O)O` [Compound 728] has an EC50 [1] of 800 to 2500 nM.

Compound `CCCCCCCOc1ccc(-c2cnc(-c3ccc(C[C@H](NC(=O)c4ccc(C(C)(C)C)cc4)C(=O)N4C[C@H](O)C[C@@H]4C(=O)O)cc3)nc2)cc1` [Compound 585] has an EC50 [1] of 800 to 2500 nM.

With `CCCCCCCOc1ccc(-c2cnc(-c3ccc(C[C@H](NC(=O)c4ccc(C(C)(C)C)s4)C(=O)NCCNC(C)=O)cc3)nc2)cc1` [Compound 389] the EC50 [1] was 800 to 2500 nM.

Work on `CCCCCCCOc1ccc(-c2cnc(-c3ccc(C[C@H](NC(=O)c4ccc(C(C)(C)C)s4)C(=O)N[C@@H](Cc4cccnc4)C(=O)O)cc3)nc2)cc1` [Compound 617] yielded an EC50 [1] of less than 800 nM.

`CCCCCCCOc1ccc(-c2cnc(-c3ccc(C[C@H](NC(=O)c4ccc(C(C)(C)C)s4)C(=O)N[C@@H](CC(=O)O)C(=O)N(C)C)cc3)nc2)cc1` [Compound 527] gave an EC50 [1] of less than 800 nM.

In the case of `CCCCCCCOc1ccc(-c2cnc(-c3ccc(C[C@H](NC(=O)c4ccc(C(C)(C)C)s4)C(=O)N[C@@H](CC(=O)N(C)CCN)C(=O)O)cc3)nc2)cc1` [Compound 519], the EC50 [1] is reported as 800 to 2500 nM.

Work on `Cc1cc(-c2ccccc2)ccc1-c1cnc(-c2ccc(C[C@H](NC(=O)c3ccc(C(C)(C)C)s3)C(=O)N[C@H](C)C(=O)O)cc2)nc1` [Compound 1131] yielded an EC50 [1] of 800 to 2500 nM.

In the case of `CCCc1ccc(C2CN(c3cnc(-c4ccc(C[C@H](NC(=O)c5ccc(C(C)(C)C)s5)C(=O)N5CC(C(=O)O)C5)cc4)nc3)C2)cc1` [Compound 1502], the EC50 [2] is reported as 2500 to 5000 nM.

`Cc1cccc(NC(=O)c2cccc(-c3cnc(-c4ccc(C[C@H](NC(=O)c5ccc(C(C)(C)C)s5)C(=O)N[C@H](C)C(=O)O)cc4)nc3)c2)c1C` [Compound 996] showed an EC50 [1] of 800 to 2500 nM.

With `CN(CCC(C)(O)c1cccc(OC(F)(F)F)c1)c1cnc(-c2ccc(CC(NC(=O)c3ccc(C(C)(C)C)s3)C(=O)N3CC(C(=O)O)C3)cc2)nc1` (stereo not drawn) [Compound 1485] the EC50 [2] was less than 800 nM.

In the case of `CCC(C)COc1ccc(-c2cnc(-c3ccc(C[C@H](NC(=O)c4ccc(C(C)(C)C)cc4)C(=O)NCCC(=O)O)cc3)nc2)cc1` (stereo partly drawn) [Compound 473], the EC50 [1] is reported as 5000 to 10000 nM.

With `Cc1cc(-c2ccc(-c3cnc(-c4ccc(C[C@H](NC(=O)c5ccc(C(C)(C)C)s5)C(=O)N5CC(C(=O)O)C5)cc4)nc3)c(F)c2)ccc1OC(F)(F)F` [Compound 1219] the EC50 [2] was less than 800 nM.

Work on `CCCCCCCOc1ccc(-c2cnc(-c3ccc(C[C@H](NC(=O)c4ccc(C(C)(C)C)s4)C(=O)N4CCC[C@H]4C(=O)NCCC(=O)O)cc3)nc2)cc1` [Compound 494] yielded an EC50 [1] of less than 800 nM.

In the case of `CC[C@H]1CC[C@H](c2ccc(-c3cnc(-c4ccc(C[C@H](NC(=O)c5ccc(C(C)(C)C)s5)C(=O)N[C@@H](CO)C(=O)O)cc4)nc3)cc2)CC1` [Compound 1326], the EC50 [2] is reported as less than 800 nM.

Work on `CCOc1cc(-c2cnc(-c3ccc(C[C@H](NC(=O)c4ccc(C(C)(C)C)s4)C(=O)N[C@H](C)C(=O)O)cc3)nc2)ccc1OC(F)(F)F` [Compound 1004] yielded an EC50 [1] of 800 to 2500 nM.

Compound `C[C@@H](NC(=O)[C@H](Cc1ccc(-c2ncc(/C=C/CCCc3ccccc3)cn2)cc1)NC(=O)c1ccc(C(C)(C)C)s1)C(=O)O` [Compound 1247] has an EC50 [2] of 800 to 2500 nM.

`CCCCCOc1ccc(-c2cnc(-c3ccc(C[C@H](NC(=O)c4ccc(C(C)(C)C)cc4)C(=O)N[C@H](C)C(=O)O)cc3)nc2)cc1` [Compound 718] was tested, and the EC50 [1] was 2500 to 5000 nM.

Compound `CCCCCCCOc1ccc(-c2cnc(-c3ccc(C[C@H](NC(=O)c4ccc(C(C)(C)C)cc4)C(=O)N4CC[C@@H](C(=O)O)C4)cc3)nc2)cc1` [Compound 588] has an EC50 [1] of 800 to 2500 nM.

With `CCc1ccc(/C=C/c2cnc(-c3ccc(C[C@H](NC(=O)c4ccc(C(C)(C)C)s4)C(=O)N4CCC[C@H]4C(=O)O)cc3)nc2)cc1` [Compound 1126] the EC50 [1] was 800 to 2500 nM.

In the case of `CC(C)CCCOc1ccc(-c2cnc(-c3ccc(C[C@H](NC(=O)c4ccc(C(C)(C)C)nc4)C(=O)N4CC(C(=O)O)C4)cc3)nc2)cc1` [Compound 1231], the EC50 [2] is reported as 800 to 2500 nM.

With `CCCCCCCOc1ccc(-c2cnc(-c3ccc(C[C@H](NC(=O)c4ccc(C(C)(C)C)cc4)C(=O)NCCC(=O)O)cc3)nc2)cc1Cl` [Compound 702] the EC50 [1] was 800 to 2500 nM.

`CCCCCCCOc1ccc(-c2cnc(-c3ccc(C[C@H](NC(=O)c4ccc(C(C)(C)C)s4)C(=O)N4CCC4C(=O)O)cc3)nc2)cc1` (stereo partly drawn) [Compound 599] gave an EC50 [1] of less than 800 nM.

`CCCCCCCOc1ccc(-c2cnc(-c3ccc(C[C@H](NC(=O)c4ccc(C(C)(C)C)cc4)C(=O)NC(C(=O)O)C(O)c4ccccc4)cc3)nc2)cc1` (stereo partly drawn) [Compound 569] gave an EC50 [1] of less than 800 nM.

Compound `CCCCCCCOc1ccc(-c2cnc(-c3ccc(C[C@H](NC(=O)c4ccc(C(C)(C)C)s4)C(=O)N[C@H](C(=O)O)[C@H](O)c4ccccc4)cc3)nc2)cc1` [Compound 642] has an EC50 [1] of less than 800 nM.

With `CCCCCCCOc1ccc(-c2cnc(-c3ccc(C[C@H](NC(=O)c4cnn(C(C)(C)C)c4)C(=O)N4CC(C(=O)O)C4)cc3)nc2)cc1` [Compound 1099] the EC50 [1] was 800 to 2500 nM.

`CCCCCCCOc1ccc(-c2cnc(-c3ccc(C[C@H](NC(=O)c4ccc(C(C)(C)C)s4)C(=O)N[C@@H](CC(=O)N(C)C)C(=O)O)cc3)nc2)cc1` [Compound 513] showed an EC50 [1] of less than 800 nM.

`CCCCCCCOc1ccc(-c2cnc(-c3ccc(C[C@H](NC(=O)c4cnc(C(C)(C)C)nc4)C(=O)N4CC(C(=O)O)C4)cc3)nc2)cc1` [Compound 1118] was tested, and the EC50 [1] was 800 to 2500 nM.

For `C[C@@H](NC(=O)[C@H](Cc1ccc(-c2ncc(-c3ccc4c(C5CCCCO5)c(O)ccc4c3)cn2)cc1)NC(=O)c1ccc(C(C)(C)C)s1)C(=O)O` (stereo partly drawn) [Compound 1031], the EC50 [1] was 2500 to 5000 nM.

Work on `CCCCCCCOc1ccc(-c2cnc(-c3ccc(C[C@H](NC(=O)Cc4ccc(OCCCC)cc4)C(=O)N4CC[C@H](C(=O)O)C4)cc3)nc2)cc1` [Compound 1095] yielded an EC50 [1] of 2500 to 5000 nM.

Work on `CCCCCCCOc1ccc(-c2cnc(-c3ccc(C[C@H](NC(=O)c4ccc(C(C)(C)C)s4)C(=O)N[C@@H](Cc4cscn4)C(=O)O)cc3)nc2)cc1` [Compound 627] yielded an EC50 [1] of less than 800 nM.

Work on `CC(C)(C)c1ccc(C(=O)N[C@@H](Cc2ccc(-c3ncc(-c4ccc(OC(F)(F)F)cc4)cn3)cc2)C(=O)NC(C(=O)O)C(O)c2ccccc2)s1` (stereo partly drawn) [Compound 927] yielded an EC50 [1] of 2500 to 5000 nM.

In the case of `CCCC(C)Oc1ccc(-c2ccc(-c3cnc(-c4ccc(C[C@H](NC(=O)c5ccc(C(C)(C)C)s5)C(=O)N[C@H](C)C(=O)O)cc4)nc3)cc2)cc1` (stereo partly drawn) [Compound 1296], the EC50 [2] is reported as 2500 to 5000 nM.

`CC[C@H]1CC[C@H](c2ccc(-c3cnc(-c4ccc(C[C@H](NC(=O)c5ccc(S(C)(=O)=O)s5)C(=O)N5CC(C(=O)O)C5)cc4)nc3)cc2)CC1` [Compound 1278] was tested, and the EC50 [2] was less than 800 nM.

In the case of `CC(C)(C)c1ccc(C(=O)N[C@@H](Cc2ccc(-c3ncc(-c4ccc(-c5ccccc5C(F)(F)F)cc4F)cn3)cc2)C(=O)N2CC(C(=O)O)C2)s1` [Compound 1223], the EC50 [2] is reported as less than 800 nM.

`C[C@@H](NC(=O)[C@H](Cc1ccc(-c2ncc(-c3ccc(N(c4ccccc4)c4ccccc4)cc3)cn2)cc1)NC(=O)c1ccc(C(C)(C)C)s1)C(=O)O` [Compound 1015] showed an EC50 [1] of 800 to 2500 nM.

With `CCOc1ccc(-c2cnc(-c3ccc(C[C@H](NC(=O)c4ccc(C(C)(C)C)s4)C(=O)N[C@H](C)C(=O)O)cc3)nc2)cc1` [Compound 731] the EC50 [1] was 2500 to 5000 nM.

Compound `CC(C)(C)c1ccc(C(=O)N[C@@H](Cc2ccc(-c3ccc(-n4c5ccccc5c5ccccc54)cc3)cc2)C(=O)O)s1` [Compound 1440] has an EC50 [2] of 5000 to 10000 nM.

In the case of `CCCCCCCOc1ccc(-c2cnc(-c3ccc(C[C@H](NC(=O)c4ncc(C(C)C)s4)C(=O)O)cc3)nc2)cc1` [Compound 148], the EC50 [1] is reported as 800 to 2500 nM.

`CCCCCCCOc1ccc(-c2cnc(-c3ccc(C[C@H](NC(=O)c4ccc(C(C)(C)C)s4)C(=O)NC4CCNC4)cc3)nc2)cc1` (stereo partly drawn) [Compound 984] was tested, and the EC50 [1] was 2500 to 5000 nM.

Work on `CC(C)(C)c1ccc(C(=O)N[C@@H](Cc2ccc(-c3ncc(-c4ccc(OCC5CCCCC5)cc4)cn3)cc2)C(=O)NC(C(=O)O)C(O)c2ccccc2)s1` (stereo partly drawn) [Compound 936] yielded an EC50 [1] of 800 to 2500 nM.

`CCC(CC)Oc1ccc(-c2ccc(-c3cnc(-c4ccc(C[C@H](NC(=O)c5ccc(C(C)(C)C)s5)C(=O)N[C@H](C)C(=O)O)cc4)nc3)cc2)cc1` [Compound 1298] was tested, and the EC50 [2] was less than 800 nM.

For `CCCCCCCOc1ccc(-c2cnc(-c3ccc(C[C@H](NC(=O)c4ccc(C(C)(C)C)cc4)C(=O)NC(CC(=O)O)c4ccccc4)cc3)nc2)cc1` (stereo partly drawn) [Compound 539], the EC50 [1] was 5000 to 10000 nM.

`CC(C)Oc1ccc(-c2ccc(-c3cnc(-c4ccc(C[C@H](NC(=O)c5ccc(C(C)(C)C)s5)C(=O)N[C@H](C)C(=O)O)cc4)nc3)cc2)cc1` [Compound 1295] gave an EC50 [2] of 800 to 2500 nM.

For `CCCCCCCCOc1ccc(-c2cnc(-c3ccc(C[C@H](NC(=O)c4ccc(C(C)(C)C)s4)C(=O)N4CC[C@H](C(=O)O)C4)cc3)nc2)cc1` [Compound 764], the EC50 [1] was less than 800 nM.

`CC(C)Cc1ccc(-c2cnc(-c3ccc(C[C@H](NC(=O)c4ccc(C(C)(C)C)s4)C(=O)N[C@H](C)C(=O)O)cc3)nc2)cc1` [Compound 1021] showed an EC50 [1] of 2500 to 5000 nM.

With `CC(C)CCCOc1ccc(-c2cnc(-c3ccc(C[C@H](NC(=O)c4ccc(CC(C)C)s4)C(=O)N4CC(C(=O)O)C4)cc3)nc2)cc1` [Compound 1234] the EC50 [2] was 2500 to 5000 nM.

Compound `C[C@@H](NC(=O)[C@H](Cc1ccc(-c2ncc(/C=C/c3ccc(F)cc3)cn2)cc1)NC(=O)c1ccc(C(C)(C)C)s1)C(=O)O` [Compound 1249] has an EC50 [2] of 2500 to 5000 nM.

`CN(C)c1ccc(C2CCN(c3cnc(-c4ccc(CC(NC(=O)c5ccc(C(C)(C)C)s5)C(=O)N5CC(C(=O)O)C5)cc4)nc3)CC2)cc1` (stereo not drawn) [Compound 1517] showed an EC50 [2] of less than 800 nM.

Compound `CCCCCCCOc1ccc(-c2cnc(-c3ccc(C[C@H](NC(=O)c4ccc(C(C)(C)C)s4)C(=O)NC(C(=O)O)C(O)c4cscn4)cc3)nc2)cc1` (stereo partly drawn) [Compound 903] has an EC50 [1] of 5000 to 10000 nM.

`Cc1cc(-c2cnc(-c3ccc(C[C@H](NC(=O)c4ccc(C(C)(C)C)s4)C(=O)N[C@H](C)C(=O)O)cc3)nc2)ccc1-c1ccccc1` [Compound 1129] showed an EC50 [1] of 800 to 2500 nM.

`CCCCCCCOc1ccc2nc(-c3ccc(C[C@H](NC(=O)c4ccc(C(C)(C)C)cc4)C(=O)N[C@H](C)C(=O)O)cc3)ncc2c1` [Compound 809] gave an EC50 [1] of 800 to 2500 nM.

Source: US10034886B2, “GLP-1 receptor modulators” (Celgene International II SÀRL, priority 2014, dated 2018)
